Source: article PMC10746543, “Design principles for cyclin K molecular glue degraders” (Nature Chemical Biology, 2023)
Several values for one entry are separate records, joined by “and”; a condition that tells them apart may be missing. Identical values can stand only once. Like-named read-outs stand apart in the source and are kept apart here. Values belong to the molecule of their own block, whether it stands above or below them.

Tests used:
CDK12–cyclin K and DDB1 = molecular target: T1, CDK12–cyclin K and DDB1 (Homo sapiens, UniProt Q16531+Q9NYV4, K965R); assay: TR-FRET ternary complex formation assay (compound titration); format: binding
T1 construct: His6–CDK12 (a.a. 713–1,052); full-length or beta-propeller B domain deletion (ΔBPB: a.a. 396–705 deleted) constructs of His6–DDB1ΔBPB, StrepII–Avi–DDB1, or His6–Spy–DDB1; made in house; host or cells: Trichoplusia ni High Five insect cells (baculovirus)
From the text: A 70 μs delay was employed to reduce background fluorescence. The TR-FRET signal was obtained through calculating the ratio of 520 nm to 490 nm fluorescence, and Prism 9 (GraphPad) was used for further data analysis.

[1] = tested on: cyclin K–eGFP degradation reporter; assay: Cyclin K reporter stability analysis (dual-color cyclin K–eGFP reporter); format: cell-based, human; details: Supplementary Table 2; HEK293T cycK-eGFP reporter, 5 h; read-out: Cellular assays DC50
Method: HEK293T–Cas9 cells expressing the cyclin K–eGFP degradation reporter were resuspended at 1 × 10^6 ml^−1 and 50 µl of cell suspension was seeded in non-cell-culture-treated 384-well plates. Shortly after, cells were treated with drug or DMSO for 5 h. […] The fluorescent signal was quantified by flow cytometry (LSRFortessa flow cytometer, BD Biosciences). Using FlowJo (flow cytometry analysis software, BD Biosciences), the geometric mean of the eGFP and mCherry fluorescent signal for round and mCherry-positive cells was calculated. The ratio of eGFP to mCherry was normalized to the average of three DMSO-treated controls.

HEK293T cells = assay: Drug sensitivity assay (CellTiter-Glo viability) with or without MLN4924 pretreatment; format: cell-based, human; details: Supplementary Table 2; for EC50: Homo sapiens, HEK-293T, HEK293T viability, 72 h, compound alone, read-out: Cellular assays EC50; for Toxicity rescue: MLN4924-mediated cytotoxicity rescue, 10 µM used where n.d.
Method: HEK293T–Cas9 cells were resuspended at 0.15 × 10^6 ml^−1 treated with DMSO or 100 nM MLN4924 and plated on 384-well plates. After 2 h, the indicated drugs were dispensed with a D300 digital dispenser (Tecan). After 3 days of drug exposure, cell viability was assessed using the CellTiter-Glo luminescent assay (Promega, G7572) on an CLARIOstar Plus, MARS 3.4 (BMG LabTech). Cell viabilities were calculated relative to DMSO controls.

CDK12–cyclin K = CDK12–cyclin K (Homo sapiens, UniProt Q9NYV4); assay: Lanthascreen kinase binding assay, CDK12; details: for Lanthascreen raw signal, sheet CDK12: series r1, duplicates
Method: (§1) Lanthascreen experiments were performed using commercially available reagents (Thermo Fisher) and according to the manufacturer’s instructions.

CDK9–cyclin T = molecular target: T2, CDK9–cyclin T (Homo sapiens, UniProt P50750); assay: Lanthascreen kinase binding assay, CDK9; details: for Lanthascreen TR-FRET signal (raw ratio), sheet CDK9: first titration set (r1), duplicates
T2 construct: purchased Thermo Fisher
Method: as §1

CDK2–cyclin A = molecular target: T3, CDK2–cyclin A (Homo sapiens, UniProt P24941); assay: Lanthascreen kinase binding assay, CDK2; details: for Lanthascreen signal, sheet CDK2: raw replicates, experiment r1-r11
T3 construct: purchased Thermo Fisher
Method: as §1

[2] = Supplementary Table 2, read-out: TR-FRET EC50 TR-FRET
[3] = in vitro complex formation, 50 nM CDK12–cyclin K, 100 nM DDB1, text and figures, read-out: TR-FRET EC50

T2 sequence (P50750 whole entry): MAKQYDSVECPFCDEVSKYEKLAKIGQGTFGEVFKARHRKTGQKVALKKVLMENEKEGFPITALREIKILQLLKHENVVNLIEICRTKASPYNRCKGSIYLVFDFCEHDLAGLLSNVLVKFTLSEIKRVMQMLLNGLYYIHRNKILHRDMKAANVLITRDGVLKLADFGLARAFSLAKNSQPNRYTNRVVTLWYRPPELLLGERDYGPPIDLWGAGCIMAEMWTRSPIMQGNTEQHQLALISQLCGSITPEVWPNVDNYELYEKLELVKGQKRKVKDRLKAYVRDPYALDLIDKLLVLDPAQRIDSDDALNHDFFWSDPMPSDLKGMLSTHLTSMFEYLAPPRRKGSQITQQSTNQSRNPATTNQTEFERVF
T2 sequence (O60563 whole entry partner): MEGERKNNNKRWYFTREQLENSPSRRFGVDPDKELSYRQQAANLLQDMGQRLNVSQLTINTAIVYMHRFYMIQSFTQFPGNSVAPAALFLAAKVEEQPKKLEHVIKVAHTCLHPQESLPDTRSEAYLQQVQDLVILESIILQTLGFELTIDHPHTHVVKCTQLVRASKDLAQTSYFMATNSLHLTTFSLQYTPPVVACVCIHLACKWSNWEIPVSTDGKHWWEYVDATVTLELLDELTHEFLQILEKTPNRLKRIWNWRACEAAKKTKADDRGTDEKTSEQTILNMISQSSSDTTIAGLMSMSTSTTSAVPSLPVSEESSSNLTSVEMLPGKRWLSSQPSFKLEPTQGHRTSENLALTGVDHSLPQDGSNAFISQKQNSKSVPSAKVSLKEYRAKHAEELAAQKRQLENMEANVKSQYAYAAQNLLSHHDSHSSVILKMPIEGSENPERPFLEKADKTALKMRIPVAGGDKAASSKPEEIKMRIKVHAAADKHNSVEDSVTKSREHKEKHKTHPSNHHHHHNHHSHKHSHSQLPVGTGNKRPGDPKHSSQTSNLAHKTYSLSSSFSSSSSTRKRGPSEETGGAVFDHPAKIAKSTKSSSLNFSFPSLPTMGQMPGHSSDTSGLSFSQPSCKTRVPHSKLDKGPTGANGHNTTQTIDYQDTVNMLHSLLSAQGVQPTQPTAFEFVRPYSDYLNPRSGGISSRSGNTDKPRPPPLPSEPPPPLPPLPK
Chain of CDK12–cyclin K (Q9NYV4 713-1052): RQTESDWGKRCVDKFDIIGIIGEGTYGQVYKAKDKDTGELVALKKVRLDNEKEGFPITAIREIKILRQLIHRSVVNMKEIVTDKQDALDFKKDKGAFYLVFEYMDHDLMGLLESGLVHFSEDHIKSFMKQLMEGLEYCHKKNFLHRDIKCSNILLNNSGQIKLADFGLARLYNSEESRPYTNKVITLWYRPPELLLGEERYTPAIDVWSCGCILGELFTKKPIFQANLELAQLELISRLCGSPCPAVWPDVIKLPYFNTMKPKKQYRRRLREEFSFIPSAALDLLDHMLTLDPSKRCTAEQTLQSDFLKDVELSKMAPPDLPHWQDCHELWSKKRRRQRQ
Chain of CDK12–cyclin K (O75909 1-267 partner limits assumed): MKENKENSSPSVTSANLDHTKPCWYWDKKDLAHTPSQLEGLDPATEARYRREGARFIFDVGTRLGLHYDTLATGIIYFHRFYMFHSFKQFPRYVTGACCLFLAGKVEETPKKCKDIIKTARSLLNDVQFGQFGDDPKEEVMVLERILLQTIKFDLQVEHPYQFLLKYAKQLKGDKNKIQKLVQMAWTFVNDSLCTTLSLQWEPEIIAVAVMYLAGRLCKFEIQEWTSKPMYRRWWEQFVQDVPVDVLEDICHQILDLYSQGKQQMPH
T1 sequence (Q9NYV4 713-1052 K965R): as the sequence (Q9NYV4 713-1052) above, with K253R counted along it
T1 sequence (O75909 1-267 partner): as the sequence (O75909 1-267 partner limits assumed) above
T1 sequence (Q16531 whole entry): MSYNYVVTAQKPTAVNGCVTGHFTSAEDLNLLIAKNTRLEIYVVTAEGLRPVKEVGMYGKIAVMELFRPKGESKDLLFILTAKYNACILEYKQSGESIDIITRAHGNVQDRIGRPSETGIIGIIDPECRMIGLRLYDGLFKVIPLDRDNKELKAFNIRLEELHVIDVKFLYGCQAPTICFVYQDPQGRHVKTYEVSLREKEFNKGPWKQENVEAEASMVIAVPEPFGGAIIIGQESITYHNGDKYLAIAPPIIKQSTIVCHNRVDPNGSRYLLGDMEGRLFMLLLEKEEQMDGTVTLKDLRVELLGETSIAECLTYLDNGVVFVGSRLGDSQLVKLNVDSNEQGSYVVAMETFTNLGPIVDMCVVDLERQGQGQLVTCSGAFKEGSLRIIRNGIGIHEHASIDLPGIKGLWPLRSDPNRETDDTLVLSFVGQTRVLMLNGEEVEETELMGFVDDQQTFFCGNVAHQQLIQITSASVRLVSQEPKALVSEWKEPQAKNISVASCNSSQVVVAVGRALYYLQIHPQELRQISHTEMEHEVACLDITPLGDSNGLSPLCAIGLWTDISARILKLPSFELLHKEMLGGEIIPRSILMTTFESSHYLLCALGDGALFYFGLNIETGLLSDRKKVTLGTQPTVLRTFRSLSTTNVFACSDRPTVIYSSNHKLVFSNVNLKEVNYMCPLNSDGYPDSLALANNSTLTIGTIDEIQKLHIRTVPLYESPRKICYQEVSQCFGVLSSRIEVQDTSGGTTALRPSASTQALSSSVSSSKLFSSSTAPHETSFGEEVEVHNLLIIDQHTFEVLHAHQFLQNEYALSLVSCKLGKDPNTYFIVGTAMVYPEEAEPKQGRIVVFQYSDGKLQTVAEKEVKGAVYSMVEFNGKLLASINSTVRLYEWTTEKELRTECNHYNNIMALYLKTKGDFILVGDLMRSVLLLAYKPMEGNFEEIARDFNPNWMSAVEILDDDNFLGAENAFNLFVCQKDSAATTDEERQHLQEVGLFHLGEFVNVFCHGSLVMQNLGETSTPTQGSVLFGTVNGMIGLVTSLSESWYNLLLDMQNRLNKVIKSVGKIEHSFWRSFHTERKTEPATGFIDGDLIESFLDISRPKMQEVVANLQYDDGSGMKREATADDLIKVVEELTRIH

EC50 (CDK12–cyclin K and DDB1; [2]): 704 nM
TR-FRET signal at compound concentration 4.68 nM (CDK12–cyclin K and DDB1; compound concentration 4.68 nM, raw replicate titration data): 0.2134 and 0.2299 and 0.1361 and 0.1347
TR-FRET signal at compound concentration 21.6 nM (CDK12–cyclin K and DDB1; compound concentration 21.6 nM, raw replicate titration data): 0.2243 and 0.2471 and 0.1497 and 0.153
TR-FRET signal at compound concentration 36 nM (CDK12–cyclin K and DDB1; compound concentration 36 nM, raw replicate titration data): 0.2585 and 0.3171 and 0.1771 and 0.1787
TR-FRET signal at compound concentration 79.2001 nM (CDK12–cyclin K and DDB1; compound concentration 79.2001 nM, raw replicate titration data): 0.3449 and 0.4117 and 0.2284 and 0.2341
TR-FRET signal at compound concentration 158.4 nM (CDK12–cyclin K and DDB1; compound concentration 158.4 nM, raw replicate titration data): 0.4712 and 0.5868 and 0.3097 and 0.3219
TR-FRET signal at compound concentration 309.6 nM (CDK12–cyclin K and DDB1; compound concentration 309.6 nM, raw replicate titration data): 0.6548 and 0.8142 and 0.4579 and 0.474
TR-FRET signal at compound concentration 626.401 nM (CDK12–cyclin K and DDB1; compound concentration 626.401 nM, raw replicate titration data): 0.9256 and 1.1545 and 0.6903 and 0.7002
TR-FRET signal at compound concentration 1252.8 nM (CDK12–cyclin K and DDB1; compound concentration 1252.8 nM, raw replicate titration data): 1.214 and 1.445 and 0.9334 and 0.9779
TR-FRET signal at compound concentration 2448 nM (CDK12–cyclin K and DDB1; compound concentration 2448 nM, raw replicate titration data): 1.442 and 1.672 and 1.232 and 1.263
TR-FRET signal at compound concentration 9936.01 nM (CDK12–cyclin K and DDB1; compound concentration 9936.01 nM, raw replicate titration data): 1.602 and 1.881 and 1.44 and 1.453
TR-FRET signal at compound concentration 20016 nM (CDK12–cyclin K and DDB1; compound concentration 20016 nM, raw replicate titration data): 1.655 and 1.896 and 1.497 and 1.485
EC50 (CDK12–cyclin K and DDB1; [3]): 704 ± 108 nM
EC50 (CDK12–cyclin K and DDB1; sheet MOESM7, read-out: log TR-FRET EC50 (converted)): 704 nM
DC50 [1]: > 10000 nM
Compound: CC[C@H](CO)Nc1nc(Nc2ccc(-c3ccccn3)cc2)c2ncn(C(C)C)c2n1 [DRF053, reference compound]
EC50 (HEK293T cells): 1310 nM
Toxicity rescue (HEK293T cells): 387%

EC50 (CDK12–cyclin K and DDB1; [2]): 17.6 nM
TR-FRET signal at compound concentration 0.468 nM (CDK12–cyclin K and DDB1; raw replicate titration data): 0.3438 and 0.3184 and 0.1924 and 0.2024
TR-FRET signal at compound concentration 0.468 nM (CDK12–cyclin K and DDB1; raw titration data): 0.3438 and 0.3184 and 0.1924 and 0.2024
TR-FRET signal at compound concentration 2.16 nM (CDK12–cyclin K and DDB1; raw replicate titration data): 0.4192 and 0.3926 and 0.2807 and 0.3027
TR-FRET signal at compound concentration 2.16 nM (CDK12–cyclin K and DDB1; raw titration data): 0.4192 and 0.3926 and 0.2807 and 0.3027
TR-FRET signal at compound concentration 3.6 nM (CDK12–cyclin K and DDB1; raw replicate titration data): 0.579 and 0.5213 and 0.4737 and 0.5178
TR-FRET signal at compound concentration 3.6 nM (CDK12–cyclin K and DDB1; raw titration data): 0.579 and 0.5213 and 0.4737 and 0.5178
TR-FRET signal at compound concentration 7.92001 nM (CDK12–cyclin K and DDB1; raw replicate titration data): 0.9688 and 0.8489 and 0.8819 and 0.9925
TR-FRET signal at compound concentration 7.92001 nM (CDK12–cyclin K and DDB1; raw titration data): 0.9688 and 0.8489 and 0.8819 and 0.9925
TR-FRET signal at compound concentration 15.84 nM (CDK12–cyclin K and DDB1; raw replicate titration data): 1.662 and 1.49 and 2.462 and 1.9374
TR-FRET signal at compound concentration 15.84 nM (CDK12–cyclin K and DDB1; raw titration data): 1.662 and 1.49 and 2.462 and 1.9374
TR-FRET signal at compound concentration 30.96 nM (CDK12–cyclin K and DDB1; raw replicate titration data): 3.334 and 2.673 and 3.406 and 3.32
TR-FRET signal at compound concentration 30.96 nM (CDK12–cyclin K and DDB1; raw titration data): 3.334 and 2.673 and 3.406 and 3.32
TR-FRET signal at compound concentration 62.6401 nM (CDK12–cyclin K and DDB1; raw replicate titration data): 4.043 and 3.673 and 3.819 and 3.799
TR-FRET signal at compound concentration 62.6401 nM (CDK12–cyclin K and DDB1; raw titration data): 4.043 and 3.673 and 3.819 and 3.799
TR-FRET signal at compound concentration 125.28 nM (CDK12–cyclin K and DDB1; raw replicate titration data): 4.112 and 3.943 and 3.866 and 3.944
TR-FRET signal at compound concentration 125.28 nM (CDK12–cyclin K and DDB1; raw titration data): 4.112 and 3.943 and 3.866 and 3.944
TR-FRET signal at compound concentration 244.8 nM (CDK12–cyclin K and DDB1; raw replicate titration data): 4.2103 and 4.005 and 3.909 and 3.827
TR-FRET signal at compound concentration 244.8 nM (CDK12–cyclin K and DDB1; raw titration data): 4.2103 and 4.005 and 3.909 and 3.827
TR-FRET signal at compound concentration 993.601 nM (CDK12–cyclin K and DDB1; raw replicate titration data): 4.121 and 4.04 and 3.857 and 3.873
TR-FRET signal at compound concentration 993.601 nM (CDK12–cyclin K and DDB1; raw titration data): 4.121 and 4.04 and 3.857 and 3.873
TR-FRET signal at compound concentration 2001.6 nM (CDK12–cyclin K and DDB1; raw replicate titration data): 4.101 and 3.97 and 3.793 and 3.647
TR-FRET signal at compound concentration 2001.6 nM (CDK12–cyclin K and DDB1; raw titration data): 4.101 and 3.97 and 3.793 and 3.647
EC50 (CDK12–cyclin K and DDB1; [3]): 18 ± 1 nM
IC50 (CDK12–cyclin K; Supplementary Table 2, read-out: Lanthascreen IC50 [nM] CDK12): 1 nM
Lanthascreen raw signal, sheet CDK12 (CDK12–cyclin K; compound 1.02544 nM): 0.01164 and 0.009885
Lanthascreen raw signal, sheet CDK12 (CDK12–cyclin K; compound 3.15521 nM): 0.008674 and 0.009398
Lanthascreen raw signal, sheet CDK12 (CDK12–cyclin K; compound 9.46563 nM): 0.007398 and 0.008542
Lanthascreen raw signal, sheet CDK12 (CDK12–cyclin K; compound 31.5521 nM): 0.006709 and 0.008514
Lanthascreen raw signal, sheet CDK12 (CDK12–cyclin K; compound 99.3891 nM): 0.005942 and 0.005764
Lanthascreen raw signal, sheet CDK12 (CDK12–cyclin K; compound 315.521 nM): 0.005543 and 0.005183
Lanthascreen raw signal, sheet CDK12 (CDK12–cyclin K; compound 3155.21 nM): 0.004896 and 0.004614
Lanthascreen raw signal, sheet CDK12 (CDK12–cyclin K; compound 10002 nM): 0.00468 and 0.003424
IC50 (CDK9–cyclin T; Supplementary Table 2, read-out: Lanthascreen IC50 [nM] CDK9): 5 nM
Lanthascreen TR-FRET signal (raw ratio), sheet CDK9 (CDK9–cyclin T; compound 1.02544 nM): 0.01641 and 0.01302
Lanthascreen TR-FRET signal (raw ratio), sheet CDK9 (CDK9–cyclin T; compound 3.15521 nM): 0.01102 and 0.01312
Lanthascreen TR-FRET signal (raw ratio), sheet CDK9 (CDK9–cyclin T; compound 9.46563 nM): 0.008363 and 0.009049
Lanthascreen TR-FRET signal (raw ratio), sheet CDK9 (CDK9–cyclin T; compound 31.5521 nM): 0.005358 and 0.007058
Lanthascreen TR-FRET signal (raw ratio), sheet CDK9 (CDK9–cyclin T; compound 99.3891 nM): 0.003738 and 0.004042
Lanthascreen TR-FRET signal (raw ratio), sheet CDK9 (CDK9–cyclin T; compound 315.521 nM): 0.003575 and 0.004296
Lanthascreen TR-FRET signal (raw ratio), sheet CDK9 (CDK9–cyclin T; compound 10002 nM): 0.002963 and 0.00293
Lanthascreen signal, sheet CDK2 (CDK2–cyclin A; Compound 1.02544 nM): 0.009698 and 0.009238
Lanthascreen signal, sheet CDK2 (CDK2–cyclin A; Compound 3.15521 nM): 0.009437 and 0.009539
Lanthascreen signal, sheet CDK2 (CDK2–cyclin A; Compound 9.46563 nM): 0.008356 and 0.007045
Lanthascreen signal, sheet CDK2 (CDK2–cyclin A; Compound 31.5521 nM): 0.006783 and 0.006389
Lanthascreen signal, sheet CDK2 (CDK2–cyclin A; Compound 99.3891 nM): 0.003942 and 0.005883
Lanthascreen signal, sheet CDK2 (CDK2–cyclin A; Compound 315.521 nM): 0.002917 and 0.004435
Lanthascreen signal, sheet CDK2 (CDK2–cyclin A; Compound 3155.21 nM): 0.002797 and 0.003541
Lanthascreen signal, sheet CDK2 (CDK2–cyclin A; Compound 10002 nM): 0.002382 and 0.002785
IC50 (CDK2–cyclin A; Supplementary Table 2, read-out: Lanthascreen IC50 [nM] CDK2): 31 nM
Compound: CC(C)n1cnc2c(NCc3ccc(-c4ccccn4)cc3)nc(N3CCCC[C@H]3CCO)nc21 [DS70]
EC50 (HEK293T cells): 265 nM
Toxicity rescue (HEK293T cells): 30%
CDK inhibitory selectivity, result in words (CDK12–cyclin K; Lanthascreen across CDK2/9/12): more pronounced pan-CDK engagement than CR8
